From US8202856B2 (Merck Serono SA, priority 2007, dated 2012)
pEC50: −log10 of the molar value.

Assays:
S1P1 receptor = S1P1 receptor (Homo sapiens, UniProt P21453); experiment: 35S-GTPγS binding, membranes from CHO cells expressing S1P1; assay type: biochemical; settings: CHO cell membranes expressing S1P1
Outline: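 Membranes (1–10 μg) from CHO cells expressing the receptor were incubated with compound in 20 mM HEPES pH 7.4, 10 mM MgCl2, 140 mM NaCl, 1.7 μM GDP, saponin and 0.2% BSA. [35S]GTPγS (added at 1.5 nM) was then bound for 60 min at 30 °C. Membrane-bound radioactivity, averaged over triplicates, is expressed relative to S1P activation (n=2).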

S1P3 receptor = S1P3 receptor (Homo sapiens, UniProt Q99500); experiment: 35S-GTPγS binding, membranes from CHO cells expressing S1P3; assay type: biochemical; settings: CHO cell membranes expressing S1P3
Sequence of S1P3 receptor (Q99500 whole entry): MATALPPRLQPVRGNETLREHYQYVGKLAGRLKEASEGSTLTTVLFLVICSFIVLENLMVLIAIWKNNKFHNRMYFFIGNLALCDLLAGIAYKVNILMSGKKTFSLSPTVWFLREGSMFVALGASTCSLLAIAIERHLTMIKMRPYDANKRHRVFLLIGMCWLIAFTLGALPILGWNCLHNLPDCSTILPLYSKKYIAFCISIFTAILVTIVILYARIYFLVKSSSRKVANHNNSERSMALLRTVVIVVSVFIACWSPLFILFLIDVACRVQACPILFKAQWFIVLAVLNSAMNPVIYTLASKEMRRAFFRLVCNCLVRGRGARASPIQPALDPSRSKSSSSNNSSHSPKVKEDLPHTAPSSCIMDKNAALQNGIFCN
Experimental: Receptor binding assay: Membranes were prepared from CHO cells expressing S1P1 or S1P3 for use in ligand and 35S-GTPTS binding studies. Cells were suspended in 50 mM TRIS, pH 7.4, 2 mM EDTA, 250 mM Sucrose (buffer A) and 1× Complete protease inhibitor cocktail (Roche), and disrupted at 4° C. by nitrogen decompression using a cell disruption bomb (Parr Instrument). Following centrifugation at 1000 RPM for 10 min at 4° C., the supernatant was suspended in buffer A and centrifuged again at 19000 RPM for 60 min at 4° C. The pellet was then suspended in 10 mM HEPES, pH 7.4, 1 mM EDTA, 250 mM Sucrose (Buffer B), and 1× Complete EDTA-free protease inhibitor cocktail and homogenized using a potter. Membranes were flash frozen in liquid nitrogen and stored at −80° C. [33P]sphingosine 1-phosphate (3000 Ci/mmol; American Radiolabeled Chemicals, Inc.) was added to test compounds in DMSO. Membranes and WGA SPA beads (GE Healthcare) were added to give a final volume of 100 μl in 96-well plates with assay concentrations of […] [33P]sphingosine 1-phosphate (respectively for S1P1 or S1P3), 50 mM HEPES, pH 7.5, 5 mM MgCl2, 100 mM NaCl, 0.4% fatty acid-free BSA, 1-5 μg/well of proteins and 100 μg/well of WGA SPA beads. Binding was performed for 60 min at room temperature on a shaker and bound radioactivity was measured on a PerkinElmer 1450 MicroBeta counter. Specific binding was calculated by subtracting remaining radioactivity in the presence of 1000-fold excess of unlabeled S1P. Binding data were analyzed using the GraphPad Prism program.
Measurements of ^35S-GTPγS Binding: Membranes (1 to 10 μg protein) prepared as described above, were incubated in 96-well Scintiplates (PerkinElmer) with test compounds diluted in DMSO, in 180 μl of 20 mM HEPES, pH 7.4, 10 mM MgCl2, 2 μg/well Saponin, 0.2% fatty acid free BSA (Assay buffer), 140 mM NaCl and 1.7 μM GDP. The assay was initiated with the addition of 20 μl of 1.5 nM [35S]-GTPγS (1100 Ci/mmol; GE Healthcare) in assay buffer. After 60 min incubation at 30° C. on a shaker, plates were centrifuged for 10 min at 2000 RPM. Supernatant was discarded and membrane bound radioactivity was measured on a PerkinElmer 1450 MicroBeta counter. Triplicate samples were averaged and expressed as response relative to S1P activation in absence of compound (n=2).

Sequence of S1P1 receptor (P21453 whole entry): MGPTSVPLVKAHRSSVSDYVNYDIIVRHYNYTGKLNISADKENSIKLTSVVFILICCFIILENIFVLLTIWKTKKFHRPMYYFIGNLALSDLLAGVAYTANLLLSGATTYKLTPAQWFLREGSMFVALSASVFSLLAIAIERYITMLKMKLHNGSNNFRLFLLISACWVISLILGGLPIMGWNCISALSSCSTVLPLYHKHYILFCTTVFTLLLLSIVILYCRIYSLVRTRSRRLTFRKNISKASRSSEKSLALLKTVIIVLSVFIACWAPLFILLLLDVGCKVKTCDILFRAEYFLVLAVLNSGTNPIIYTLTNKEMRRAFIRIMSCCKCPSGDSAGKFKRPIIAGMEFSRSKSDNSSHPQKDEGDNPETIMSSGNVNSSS

| Compound | pEC50 (S1P1 receptor) | pEC50 (S1P3 receptor) |
| --- | --- | --- |
| Fc1ccc(F)c(-c2noc(-c3nnn(-c4ccccc4F)c3-c3ccccc3)n2)c1 [Example 12, 3-(2,5-Difluorophenyl)-5-[1-(2-fluorophenyl)-5-phenyl-1H-1,2,3-triazole-4-yl]-1,2,4-oxadiazole] | 8.15 | 4.85 |
| Fc1ccccc1-c1noc(-c2nnn(-c3ccccc3F)c2-c2ccccc2)n1 [Example 13, 3-(2-Fluorophenyl)-5-[1-(2-fluorophenyl)-5-phenyl-1H-1,2,3-triazole-4-yl]-1,2,4-oxadiazole] | 7.54 | 6.31 |
| CCCCc1c(-c2nc(-c3ccccc3F)no2)nnn1-c1ccccc1F [Example 16, 5-5-[5-Butyl-1-(2-fluorophenyl)-1H-1,2,3-triazole-4-yl]-3-(2-fluorophenyl)-1,2,4-oxadiazole] | 6.80 | 5.13 |
| Oc1ccc(-c2noc(-c3nnn(-c4ccccc4F)c3-c3ccccc3)n2)c(F)c1 [Example 18, 3-Fluoro-4-{5-[1-(2-fluorophenyl)-5-phenyl-1H-1,2,3-triazole-4-yl]-1,2,4-oxadiazole-3-yl}phenol] | 7.66 | 6.66 |
| Fc1ccccc1-n1nnc(-c2nc(-c3cccc(C(F)(F)F)c3)no2)c1-c1ccccc1 [Example 21, 5-[1-(2-Fluorophenyl)-5-phenyl-1H-1,2,3-triazole-4-yl]-3-[3-(trifluoromethyl)phenyl]-1,2,4-oxadiazole] | 7.39 | < 4.52 |
| Fc1ccc(F)c(-c2noc(-c3nnn(-c4ccccc4F)c3-c3cccnc3)n2)c1 [Example 26, 3-[4-[3-(2,5-Difluorophenyl)-1,2,4-oxadiazole-5-yl]-1-(2-fluorophenyl)-1H-1,2,3-triazole-5-yl]pyridine] | 7.02 | < 4.70 |
| Fc1ccc(F)c(-c2noc(-c3nnn(-c4ccccc4F)c3-c3ccccn3)n2)c1 [Example 28, 2-[4-[3-(2,5-Difluorophenyl)-1,2,4-oxadiazole-5-yl]-1-(2-fluorophenyl)-1H-1,2,3-triazole-5-yl]pyridine] | 7.36 | 5.14 |

Continued by rising pEC50 (S1P1 receptor), values first:

| pEC50 (S1P1 receptor) | pEC50 (S1P3 receptor) | Compound |
| --- | --- | --- |
| 6.41 | < 4.52 | COCc1c(-c2nc(-c3ccccc3)no2)nnn1-c1ccccc1F [Example 15, 5-[1-(2-Fluorophenyl)-5-(methoxymethyl)-1H-1,2,3-triazole-4-yl]-3-phenyl-1,2,4-oxadiazole] |
| 6.57 | < 4.70 | Fc1ccccc1-c1noc(-c2nnn(-c3ccccc3F)c2-c2cccnc2)n1 [Example 25, 3-{1-(2-Fluorophenyl)-4-[3-(2-fluorophenyl)-1,2,4-oxadiazole-5-yl]-1H-1,2,3-triazole-5-yl}pyridine] |
| 6.73 | 5.54 | Fc1ccccc1-c1noc(-c2nnn(-c3ccccc3F)c2-c2ccccn2)n1 [Example 27, 2-{1-(2-Fluorophenyl)-4-[3-(2-fluorophenyl)-1,2,4-oxadiazole-5-yl]-1H-1,2,3-triazole-5-yl}pyridine] |
| 6.84 | 5.31 | CCCCc1c(-c2nc(-c3ccccc3)no2)nnn1-c1ccccc1F [Example 17, 5-[5-Butyl-1-(2-fluorophenyl)-1H-1,2,3-triazole-4-yl]-3-phenyl-1,2,4-oxadiazole] |
| 6.85 | 5.16 | COc1ccccc1-c1noc(-c2nnn(-c3ccccc3F)c2-c2ccccc2)n1 [Example 22, 5-[1-(2-Fluorophenyl)-5-phenyl-1H-1,2,3-triazole-4-yl]-3-(2-methoxyphenyl)-1,2,4-oxadiazole] |
| 7.08 | 5.07 | COC(=O)c1cccc(-c2noc(-c3nnn(-c4ccccc4F)c3-c3ccccc3)n2)c1 [Example 20, Methyl 3-{5-[1-(2-fluorophenyl)-5-phenyl-1H-1,2,3-triazole-4-yl]-1,2,4-oxadiazole-3-yl}benzoate] |
| 7.42 | 6.40 | Fc1ccccc1-n1nnc(-c2nc(-c3ccccc3)no2)c1-c1ccccc1 [Example 14, 5-[1-(2-Fluorophenyl)-5-phenyl-1H-1,2,3-triazole-4-yl]-3-phenyl-1,2,4-oxadiazole] |
